Test results published in patent US10174065B2, “Antidiabetic enolic glucoside of phenylpyruvic acid” (ZADEC APS, priority 2010, dated 2019).

Tests used:
Assay type in all cases: in vivo
gene expression in liver = assay: Quantitative real-time PCR gene expression in liver of obese, insulin resistant Wistar rats
Method: (§1) Three week old male rats were fed a high fat diet for 24 weeks to induce obesity and insulin resistance. Thereafter, rats were treated with 0.3 mg/kg Rx-1 daily for two weeks, and then with 3 mg/kg Rx-1 daily for seven days. Fasting glucose concentrations were measured before treatment, after two weeks treatment with 0.3 mg/kg Rx-1 and then again after seven days treatment with 3 mg/kg Rx-1. After treatment with 3 mg/kg Rx-1 rats were terminated and liver, muscle and pancreas biopsies were taken. Quantitative real-time PCR was used to measure the expression of 12 genes in liver and muscle samples, and ten genes in pancreas samples.
(§2) Rats were housed at the Primate Unit (Medical Research Council, South Africa). Rat management including feeding, glucose measurements and terminations, were done according to standard operating procedures (Diabetes Discovery Platform, Medical Research Council). Briefly, three week old rats were fed a high fat diet for 24 weeks to induce T2D. The study group consisted of thirteen rats, eight rats were treated by daily gavage with 0.3 mg/kg Rx-1 for two weeks, and then with 3 mg/kg Rx-1 for seven days. Five rats were used as controls and were treated with water only for three weeks. Rats were terminated after treatment and liver, muscle and pancreas tissue harvested and stored in RNalater (Ambion) as recommended by the manufacturer. The study was approved by the ethics committee of the Medical Research Council of South Africa.
Tissue was removed from RNAlater, weighed (80-100 mg), and placed in a 2 ml microfuge tube containing 1 ml of Trizol (Invitrogen) and a stainless steel bead (Qiagen). Tissue was homogenised in the TissueLyser (Qiagen) at 25 Hz for 6 min, centrifuged at 12,000 g for 10 min at 4° C., and the supernatant removed and incubated at room temperature for 5 min. Thereafter, 0.2 ml of chloroform (Sigma) was added, shaken vigorously for 15 sec, and then incubated at room temperature for 3 min with occasional mixing. Samples were centrifuged 12,000 g for 15 min at 4° C. and the aqueous phase was transferred to a new tube. RNA was precipitated by adding 0.5 ml isopropanol, mixed well for 30 sec, and placed at −20° C. overnight. The following day, tubes were centrifuged at 12,000 g for 20 min at 4° C. The pellet was washed with 1 ml of 75% ethanol and centrifuged at 12,000 g for 15 min at 4° C. The wash step was repeated. After the second wash, the pellet was air dried by placing tubes with their lids open (on ice) in a PCR cabinet for 2 hours. Excess liquid was removed by blotting tubes on paper towel occasionally during this incubation. The pellet was resuspended by adding 100 μl RNase-free water and incubating at 55° C. for 10 min. RNA concentrations were determined using a spectrophotometer (Nanodrop Technologies). Thereafter, RNA was purified with the RNeasy Mini Kit according to the manufacturer's instructions (Qiagen) and concentrations again determined with the Nanodrop. Genomic DNA was removed by treating RNA with Turbo DNA-free DNase (Ambion) and incubating at 37° C. for 90 min according to the manufacturer's instructions, but using 1.5× the units of DNase and incubation time recommended by the kit. In brief, 20 μg RNA was incubated with 1.5 μl (3 units) DNase, 5 μl DNase buffer, and nuclease-free water in a final reaction volume of 50 μl for 45 min at 37° C., thereafter, another 3 units of DNase was added and incubated for a further 45 min. DNase was inactivated by adding ⅕ volume (10 μl) of the DNase inactivation reagent supplied with the kit. Reactions were incubated at room temperature for 2 min, and centrifuged at 14,000 rpm for 1.5 min. The supernatant was removed and RNA concentrations were measured using the Nanodrop. The quality of the DNase-treated RNA was determined with the RNA 6000 Nano kit using the 2100 Bioanalyser Lab-on-a-Chip system as recommended by the manufacturers (Agilent technologies). […]

[1] = tested on: gene expression in muscle; assay: Quantitative real-time PCR gene expression in muscle of obese, insulin resistant Wistar rats
Method: as §1, §2
(§3) RNA extracted from liver, muscle and pancreas tissue was converted to cDNA using the High Capacity Reverse Transcription kit as recommended by the manufacturers (Applied Biosystems). In brief, 2 μg of DNase-treated RNA was added to nuclease-free water in a volume of 10 μl. Thereafter, 2 μl reaction buffer, 0.8 μl dNTPs, 2 μl random primers, 1 μl RNase-inhibitor, 1 μl reverse transcriptase, and 3.2 μl nuclease-free water were added. The same reaction without the reverse transcription enzyme (minus RT reaction) was set-up to investigate genomic DNA contamination. Reactions were incubated at 25° C. for 10 min, 37° C. for 120 min, and 85° C. for 5 s to inactivate the reverse transcriptase. cDNA samples were stored at −20° C. until expression analysis.
(§4) For analysis of gene expression, 25 ng of cDNA prepared from liver, muscle and pancreas was mixed with 12.5 μl Taqman universal PCR master mix (Applied Biosystems), 1.25 μl gene-specific primer and probe mixtures (predeveloped Taqman gene expression assays, Applied Biosystems), and H2O in a final volume of 25 μl. The suffix _m represents an assay whose probe spans an exon-exon junction of the associated gene and therefore will not detect genomic DNA, while the suffix _s represents an assay whose primers and probes are designed within a single exon, such assays will detect genomic DNA.
(§5) The PCR reactions were conducted on the ABI 7500 Sequence Detection System Instrument (Applied Biosystems) using universal cycling conditions as described before. All samples were run in duplicate. Data generated on the ABI 7500 Instrument were analysed with the ABI Relative Quantitation (RQ) software (SDS V1.4) using a Ct threshold of 0.1. Relative expression levels were determined by using the 2^−ΔΔCt method, where ΔΔCt=(Ctgene studied−Cthousekeeping gene)treated−(Ctgene studied−Cthousekeeping gene)control. The gene expression was normalised to housekeeping genes to correct for differences in cDNA loading. Two gene expression assays, β-actin (ActB) and glyceraldehyde-3-phosphate dehydrogenase (Gapdh) (Table 1) were used as endogenous controls. Relative gene expression data generated by the RQ software for each of the two endogenous controls individually or the data normalised to the average of the two endogenous controls were imported into Microsoft Excel and analysed. […]

[2] = tested on: gene expression in pancreas; assay: Quantitative real-time PCR gene expression in pancreas of obese, insulin resistant Wistar rats
Method: as §1, §2, §3, §4, §5

[3] = liver, 0.3 mg/kg two weeks then 3 mg/kg seven days
[4] = liver, not statistically significant

O=C(O)/C(=C/c1ccccc1)O[C@@H]1O[C@H](CO)[C@@H](O)[C@H](O)[C@H]1O [RX-1, 3-Phenyl-2-(3,4,5-trihydroxy-6-hydroxymethyl-tetrahydro-pyran-2-yloxy)-acrylic acid]
Pi3k expression (gene expression in liver; liver only, not significant): upregulated
Gck gene expression (gene expression in liver; liver, 0.3 mg/kg daily two weeks then 3 mg/kg daily seven days, not statistically significant): increased
Glut1 expression (gene expression in liver; [3]): increased
Glut2 expression (gene expression in liver; [3]): increased
IR gene expression (gene expression in liver; [3]): upregulated
IRS1 mRNA levels (gene expression in liver; [3]): unchanged
IRS2 gene expression (gene expression in liver; [3]): increased
PPARα expression (gene expression in liver; [3]): significantly upregulated
GcgR gene expression (gene expression in liver; [4]): increased
SOCS1 mRNA expression (gene expression in liver; [4]): increased
SOCS3 mRNA expression (gene expression in liver; liver, statistically significant): increased
Gck mRNA levels [1]: decreased
Glut4 mRNA levels [1]: unaffected
IR gene expression [1]: did not affect
IRS1 mRNA levels [1]: unchanged
IRS2 mRNA levels [1]: unchanged
GcgR gene expression ([1]; not statistically significant): increased
SOCS1 mRNA expression ([1]; not statistically significant): increased
SOCS3 mRNA expression ([1]; not statistically significant): increased
Pcsk2 or proconvertase 2 (PC2) mRNA levels [2]: unaffected
nestin mRNA levels [2]: unaffected
GLP1R gene expression ([2]; not statistically significant): increased
Gcg mRNA levels ([2]; not statistically significant): increased
GcgR mRNA levels ([2]; not statistically significant): increased
Ins1 gene expression ([2]; not statistically significant): increased
Ins2 gene expression ([2]; not statistically significant): increased
Isl1 mRNA levels ([2]; not statistically significant): increased
Pdx1 gene expression ([2]; not statistically significant): increased
